Experimental data as given in patent US20100292231A1, “Indazole Compounds for Treating Inflammatory Disorders, Demyelinating Disorders and Cancers” (priority 2007, published 2010).
Where two headings read alike, the source gives them in different places.

Columns and labels:
Test in all cases: SelectScreen kinase specificity survey
Format in all cases: biochemical
AURKB (Aurora B) = target: T1, AURKB (Aurora B) (Homo sapiens, UniProt Q96GD4); conditions: estimated, abridged dose response curve, read-out: Kinase inhibitory activity EC50
T1 construct: purchased Invitrogen, Inc. (SelectScreen service)
Description: (§1) Testing of the compounds described in this invention was carried out using the SelectScreen™ platform from Invitrogen, Inc. (Carlsbad. Calif., USA) and the details of its performance are readily viewed via the web by linking to: http://www.invitrogen.com/downloads/SelectScrn_Brochure.pdf.
(§2) Briefly, the approach is based on treating each specific kinase with a unique substrate and optical reporter system in the presence of ATP at 100 micromolar. In controls, the substrate is phosphorylated and a baseline optimal response is recorded.
(§3) The compounds were then re-tested by adding graded amounts of putative inhibitor which were added in 5 separate increments to generate a dose response curve. The latter is obtained by fitting to a 4 parameter Hill equation, a sigmoid saturation equation.
(§4) The same assay system described in Example 2 can be applied in the determination of kinase specificity. It is well understood by medicinal chemists in the development of kinase inhibitors that the resulting molecules often lack specificity. Not only are homologous kinases inhibited by the same class of compounds, but also non-homologous kinases can be affected by allosteric, induced, activated vs inactivated conformation, and protein folding interactions with the putative inhibitor, which otherwise had been designed to be specific. These off target effects are difficult to predict and can only be ruled in or out by empirically surveying a large set of kinases. It is also understood that changes to scaffolds and variation in their chemical decorations may influence the extent of promiscuity in the patterns of kinase inhibition across kinase classes.
(§5) The following experiment was conducted to address this issue. The indazole compound (IV), described in Example 2 and representative of the new genus was tested along with Symadex against a panel of 230 kinases representative of all known kinases classes. Included in the survey were the Flt3, its mutant, and close relatives in the Class III receptor tyrosine kinase class, together with serine-threonine kinases and atypical kinases many of which share no homology of active site with Flt3 as shown, for example, in the respective “genecard” for each kinase and available for inspection at on the web at http://www.genecards.org/.
(§6) Table 3 lists the estimated EC50 values from an abridged dose response curve for Symadex (C-1311) and CF-123. The kinases are listed alphabetically by Group and Family.

FGFR1 = target: T2, FGFR1 (Homo sapiens, UniProt P11362); conditions: estimated, abridged dose response curve, read-out: Kinase inhibitory activity EC50
T2 construct: purchased Invitrogen (SelectScreen service)
Description: as §1, §2, §3, §4, §5, §6

FLT3 D835Y = target: T3, FLT3 D835Y (Homo sapiens, UniProt P36888, D835Y); conditions: estimated, abridged dose response curve, read-out: Kinase inhibitory activity EC50
T3 construct: purchased Invitrogen (SelectScreen platform)
T3 sequence (P36888 27-993 D835Y): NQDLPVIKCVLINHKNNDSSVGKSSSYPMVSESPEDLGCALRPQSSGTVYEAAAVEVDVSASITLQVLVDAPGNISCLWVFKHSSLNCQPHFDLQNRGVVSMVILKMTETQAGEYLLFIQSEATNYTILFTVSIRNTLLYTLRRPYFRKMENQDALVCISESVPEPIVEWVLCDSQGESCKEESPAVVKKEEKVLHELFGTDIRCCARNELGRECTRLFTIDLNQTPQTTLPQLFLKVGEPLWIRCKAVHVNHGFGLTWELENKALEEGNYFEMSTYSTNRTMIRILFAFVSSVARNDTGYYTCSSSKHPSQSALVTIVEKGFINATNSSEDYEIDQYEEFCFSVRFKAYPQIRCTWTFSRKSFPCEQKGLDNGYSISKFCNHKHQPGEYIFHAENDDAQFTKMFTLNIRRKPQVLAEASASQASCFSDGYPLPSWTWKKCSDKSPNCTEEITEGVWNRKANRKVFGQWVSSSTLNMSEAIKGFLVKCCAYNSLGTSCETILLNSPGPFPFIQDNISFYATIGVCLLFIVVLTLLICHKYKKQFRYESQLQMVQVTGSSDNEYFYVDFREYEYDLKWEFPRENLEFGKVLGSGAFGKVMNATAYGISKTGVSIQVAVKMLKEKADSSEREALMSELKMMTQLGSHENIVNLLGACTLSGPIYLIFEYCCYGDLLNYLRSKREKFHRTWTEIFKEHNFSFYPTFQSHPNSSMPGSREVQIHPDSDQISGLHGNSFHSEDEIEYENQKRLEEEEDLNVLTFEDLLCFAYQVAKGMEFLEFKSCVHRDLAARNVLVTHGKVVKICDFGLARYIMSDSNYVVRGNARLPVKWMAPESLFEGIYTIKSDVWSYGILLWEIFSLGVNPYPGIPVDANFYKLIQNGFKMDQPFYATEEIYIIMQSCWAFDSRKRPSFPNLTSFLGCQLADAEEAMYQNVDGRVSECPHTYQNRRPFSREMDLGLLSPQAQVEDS
Description: as §1, §2, §3, §4, §5, §6

FRK (PTK5) = target: T4, FRK (PTK5) (Homo sapiens, UniProt P42685); conditions: estimated, abridged dose response curve, read-out: Kinase inhibitory activity EC50
T4 construct: purchased Invitrogen (SelectScreen)
Description: as §1, §2, §3, §4, §5, §6

GRK6 = target: T5, GRK6 (Homo sapiens, UniProt P43250)
T5 construct: purchased Invitrogen (SelectScreen platform)
Description: as §1, §2, §3, §4, §5, §6

IGF1R = target: T6, IGF1R (Homo sapiens, UniProt P08069); conditions: estimated, abridged dose response curve, read-out: Kinase inhibitory activity EC50
T6 construct: purchased Invitrogen (SelectScreen platform)
Description: as §1, §2, §3, §4, §5, §6

MAPK1 (ERK2) = target: T7, MAPK1 (ERK2) (Homo sapiens, UniProt P28482); conditions: estimated, abridged dose response curve, read-out: Kinase inhibitory activity EC50
T7 construct: purchased Invitrogen (SelectScreen platform)
Description: as §1, §2, §3, §4, §5, §6

MAPK10 (JNK3) = target: T8, MAPK10 (JNK3) (Homo sapiens, UniProt P53779); conditions: estimated, abridged dose response curve, read-out: Kinase inhibitory activity EC50
T8 construct: purchased Invitrogen (SelectScreen platform)
Description: as §1, §2, §3, §4, §5, §6

MAPK13 (p38 delta) = target: T9, MAPK13 (p38 delta) (Homo sapiens, UniProt O15264); conditions: estimated, abridged dose response curve, read-out: Kinase inhibitory activity EC50
T9 construct: purchased Invitrogen, Inc. (SelectScreen service)
Description: as §1, §2, §3, §4, §5, §6

PAK6 = target: T10, PAK6 (Homo sapiens, UniProt Q9NQU5); conditions: estimated, abridged dose response curve, read-out: Kinase inhibitory activity EC50
T10 construct: purchased Invitrogen (SelectScreen platform)
Description: as §1, §2, §3, §4, §5, §6

PDGFRB (PDGFR beta) = target: T11, PDGFRB (PDGFR beta) (Homo sapiens, UniProt P09619); conditions: estimated, abridged dose response curve, read-out: Kinase inhibitory activity EC50
T11 construct: purchased Invitrogen (SelectScreen platform)
Description: as §1, §2, §3, §4, §5, §6

PRKCI (PKC iota) = target: T12, PRKCI (PKC iota) (Homo sapiens, UniProt P41743); conditions: estimated, abridged dose response curve, read-out: Kinase inhibitory activity EC50
T12 construct: purchased Invitrogen, Inc. (SelectScreen platform)
Description: as §1, §2, §3, §4, §5, §6

PTK2B (FAK2, PYK2) = target: T13, PTK2B (FAK2, PYK2) (Homo sapiens, UniProt Q14289); conditions: estimated, abridged dose response curve, read-out: Kinase inhibitory activity EC50
T13 construct: purchased Invitrogen (SelectScreen service)
Description: as §1, §2, §3, §4, §5, §6

SYK = target: T14, SYK (Homo sapiens, UniProt P43405); conditions: estimated, abridged dose response curve, read-out: Kinase inhibitory activity EC50
T14 construct: purchased Invitrogen (SelectScreen)
Description: as §1, §2, §3, §4, §5, §6

TEK (Tie2) = target: T15, TEK (Tie2) (Homo sapiens, UniProt Q02763); conditions: estimated, abridged dose response curve, read-out: Kinase inhibitory activity EC50
T15 construct: purchased Invitrogen (SelectScreen)
Description: as §1, §2, §3, §4, §5, §6

T8 sequence (P53779 whole entry): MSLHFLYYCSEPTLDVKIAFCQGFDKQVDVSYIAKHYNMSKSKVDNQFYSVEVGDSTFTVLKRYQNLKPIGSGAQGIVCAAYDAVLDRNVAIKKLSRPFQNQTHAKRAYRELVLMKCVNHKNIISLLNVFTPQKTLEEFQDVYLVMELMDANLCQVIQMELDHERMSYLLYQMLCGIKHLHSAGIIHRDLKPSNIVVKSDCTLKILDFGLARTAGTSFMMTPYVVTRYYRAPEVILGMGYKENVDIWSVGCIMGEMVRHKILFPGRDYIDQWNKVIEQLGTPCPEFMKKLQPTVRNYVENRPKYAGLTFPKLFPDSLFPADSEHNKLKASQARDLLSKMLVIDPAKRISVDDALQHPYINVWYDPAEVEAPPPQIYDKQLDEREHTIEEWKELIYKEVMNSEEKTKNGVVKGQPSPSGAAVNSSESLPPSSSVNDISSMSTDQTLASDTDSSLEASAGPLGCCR
T5 sequence (P43250 whole entry): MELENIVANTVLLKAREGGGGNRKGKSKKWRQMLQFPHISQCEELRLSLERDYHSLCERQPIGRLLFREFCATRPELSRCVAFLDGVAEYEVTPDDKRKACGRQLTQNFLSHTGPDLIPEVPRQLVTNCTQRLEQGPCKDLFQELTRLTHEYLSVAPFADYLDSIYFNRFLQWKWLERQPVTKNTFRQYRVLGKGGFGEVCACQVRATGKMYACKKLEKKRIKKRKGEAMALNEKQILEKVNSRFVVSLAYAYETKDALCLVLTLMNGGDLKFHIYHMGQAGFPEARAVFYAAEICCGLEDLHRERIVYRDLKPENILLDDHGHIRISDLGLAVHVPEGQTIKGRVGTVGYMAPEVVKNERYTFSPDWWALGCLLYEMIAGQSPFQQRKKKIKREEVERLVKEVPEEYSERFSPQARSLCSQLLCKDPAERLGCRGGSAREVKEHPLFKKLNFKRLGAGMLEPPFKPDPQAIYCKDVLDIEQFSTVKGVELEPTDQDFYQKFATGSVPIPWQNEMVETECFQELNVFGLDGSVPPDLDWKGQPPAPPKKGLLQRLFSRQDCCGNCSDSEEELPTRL
T12 sequence (P41743 whole entry): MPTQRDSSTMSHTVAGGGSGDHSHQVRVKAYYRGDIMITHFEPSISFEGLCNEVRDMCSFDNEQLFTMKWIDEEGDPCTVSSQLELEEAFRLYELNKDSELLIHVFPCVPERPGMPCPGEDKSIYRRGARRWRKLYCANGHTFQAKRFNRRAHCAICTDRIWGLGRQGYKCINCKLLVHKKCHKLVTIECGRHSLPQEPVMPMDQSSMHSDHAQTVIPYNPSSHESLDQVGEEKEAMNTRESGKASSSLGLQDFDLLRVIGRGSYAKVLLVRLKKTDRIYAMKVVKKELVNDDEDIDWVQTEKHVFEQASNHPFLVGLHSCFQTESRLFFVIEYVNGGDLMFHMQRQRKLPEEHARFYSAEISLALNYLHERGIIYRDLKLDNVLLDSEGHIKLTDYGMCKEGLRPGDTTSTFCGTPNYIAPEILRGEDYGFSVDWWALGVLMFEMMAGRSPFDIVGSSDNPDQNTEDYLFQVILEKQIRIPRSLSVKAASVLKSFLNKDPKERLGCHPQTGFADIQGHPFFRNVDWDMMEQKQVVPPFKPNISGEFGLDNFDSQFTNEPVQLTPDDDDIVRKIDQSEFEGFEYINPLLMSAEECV
T10 sequence (Q9NQU5 whole entry): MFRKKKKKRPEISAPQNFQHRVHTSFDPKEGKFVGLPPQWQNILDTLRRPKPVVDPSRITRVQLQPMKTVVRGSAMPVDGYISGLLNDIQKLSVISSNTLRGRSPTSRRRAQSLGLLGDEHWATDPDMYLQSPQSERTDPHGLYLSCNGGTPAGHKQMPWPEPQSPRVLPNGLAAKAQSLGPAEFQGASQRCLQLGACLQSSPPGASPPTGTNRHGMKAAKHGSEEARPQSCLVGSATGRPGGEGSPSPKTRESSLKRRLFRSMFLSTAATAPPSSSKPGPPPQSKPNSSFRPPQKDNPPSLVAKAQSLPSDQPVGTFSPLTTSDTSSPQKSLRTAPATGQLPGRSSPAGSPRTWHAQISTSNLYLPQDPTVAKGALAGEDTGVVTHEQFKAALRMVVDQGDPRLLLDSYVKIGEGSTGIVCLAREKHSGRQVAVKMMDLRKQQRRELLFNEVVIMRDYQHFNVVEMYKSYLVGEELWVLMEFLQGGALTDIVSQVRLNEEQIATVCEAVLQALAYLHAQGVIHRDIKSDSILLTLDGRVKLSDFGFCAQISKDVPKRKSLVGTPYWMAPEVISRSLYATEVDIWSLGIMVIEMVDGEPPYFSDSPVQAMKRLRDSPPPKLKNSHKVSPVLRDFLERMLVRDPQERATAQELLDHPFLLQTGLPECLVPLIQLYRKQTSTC
T4 sequence (P42685 whole entry): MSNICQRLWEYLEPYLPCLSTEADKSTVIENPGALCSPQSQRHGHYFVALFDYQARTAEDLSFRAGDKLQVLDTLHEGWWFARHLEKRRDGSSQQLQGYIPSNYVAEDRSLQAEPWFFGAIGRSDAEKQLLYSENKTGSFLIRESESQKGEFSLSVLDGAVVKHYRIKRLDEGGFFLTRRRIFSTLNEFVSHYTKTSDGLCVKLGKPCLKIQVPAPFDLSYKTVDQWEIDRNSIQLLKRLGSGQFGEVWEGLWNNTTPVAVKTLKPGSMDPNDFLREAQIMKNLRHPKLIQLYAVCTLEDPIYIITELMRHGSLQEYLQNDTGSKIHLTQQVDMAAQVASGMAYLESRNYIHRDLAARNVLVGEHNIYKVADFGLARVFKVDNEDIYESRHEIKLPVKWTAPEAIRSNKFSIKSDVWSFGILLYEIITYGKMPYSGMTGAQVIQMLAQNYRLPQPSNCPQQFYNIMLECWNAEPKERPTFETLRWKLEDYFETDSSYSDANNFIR
T15 sequence (Q02763 23-1124): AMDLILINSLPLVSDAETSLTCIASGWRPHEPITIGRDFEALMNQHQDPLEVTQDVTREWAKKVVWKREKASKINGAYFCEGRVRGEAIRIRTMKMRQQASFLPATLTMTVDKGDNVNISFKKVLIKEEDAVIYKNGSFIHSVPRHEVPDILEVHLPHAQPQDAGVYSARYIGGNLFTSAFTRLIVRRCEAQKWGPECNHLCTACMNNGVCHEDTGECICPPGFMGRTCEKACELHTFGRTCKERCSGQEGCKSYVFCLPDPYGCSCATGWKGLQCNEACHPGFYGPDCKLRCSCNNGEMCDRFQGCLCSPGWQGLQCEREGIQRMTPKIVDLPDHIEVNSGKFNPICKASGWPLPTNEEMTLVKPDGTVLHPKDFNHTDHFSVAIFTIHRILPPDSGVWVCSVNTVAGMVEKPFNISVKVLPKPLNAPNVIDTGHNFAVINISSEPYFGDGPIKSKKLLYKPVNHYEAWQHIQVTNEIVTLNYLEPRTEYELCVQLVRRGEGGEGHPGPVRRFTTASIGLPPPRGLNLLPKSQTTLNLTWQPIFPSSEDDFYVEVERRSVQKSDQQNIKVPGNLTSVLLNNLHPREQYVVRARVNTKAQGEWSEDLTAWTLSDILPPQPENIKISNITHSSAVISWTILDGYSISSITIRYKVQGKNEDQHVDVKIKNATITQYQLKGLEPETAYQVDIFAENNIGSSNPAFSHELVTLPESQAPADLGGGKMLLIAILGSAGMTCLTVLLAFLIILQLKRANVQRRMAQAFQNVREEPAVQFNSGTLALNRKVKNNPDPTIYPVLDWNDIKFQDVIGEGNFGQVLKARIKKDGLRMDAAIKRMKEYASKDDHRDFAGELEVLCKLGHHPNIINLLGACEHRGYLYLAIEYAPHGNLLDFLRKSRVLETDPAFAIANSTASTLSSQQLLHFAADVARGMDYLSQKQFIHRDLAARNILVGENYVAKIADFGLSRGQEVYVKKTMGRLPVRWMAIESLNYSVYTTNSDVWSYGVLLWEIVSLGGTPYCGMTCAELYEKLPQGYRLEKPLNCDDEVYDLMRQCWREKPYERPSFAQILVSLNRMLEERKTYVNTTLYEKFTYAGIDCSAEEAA
T7 sequence (P28482 whole entry): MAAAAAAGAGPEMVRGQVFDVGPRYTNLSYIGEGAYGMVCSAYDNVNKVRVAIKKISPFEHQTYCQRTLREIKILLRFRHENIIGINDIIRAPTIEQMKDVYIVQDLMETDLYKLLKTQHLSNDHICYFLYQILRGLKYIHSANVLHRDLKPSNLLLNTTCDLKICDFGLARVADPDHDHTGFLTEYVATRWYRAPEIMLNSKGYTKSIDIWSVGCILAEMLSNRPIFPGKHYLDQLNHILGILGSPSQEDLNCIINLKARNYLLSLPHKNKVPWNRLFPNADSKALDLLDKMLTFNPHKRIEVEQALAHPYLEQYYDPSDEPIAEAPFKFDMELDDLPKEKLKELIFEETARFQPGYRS
T1 sequence (Q96GD4 whole entry): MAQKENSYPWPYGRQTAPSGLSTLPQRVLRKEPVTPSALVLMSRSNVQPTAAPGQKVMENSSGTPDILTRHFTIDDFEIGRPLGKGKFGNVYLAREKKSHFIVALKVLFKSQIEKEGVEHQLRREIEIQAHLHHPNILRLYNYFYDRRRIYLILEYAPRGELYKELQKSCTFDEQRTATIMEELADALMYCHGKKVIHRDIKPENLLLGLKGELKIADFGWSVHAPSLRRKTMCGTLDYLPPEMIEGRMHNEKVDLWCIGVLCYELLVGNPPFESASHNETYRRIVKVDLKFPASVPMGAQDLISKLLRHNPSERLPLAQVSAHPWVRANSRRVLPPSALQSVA
T9 sequence (O15264 whole entry): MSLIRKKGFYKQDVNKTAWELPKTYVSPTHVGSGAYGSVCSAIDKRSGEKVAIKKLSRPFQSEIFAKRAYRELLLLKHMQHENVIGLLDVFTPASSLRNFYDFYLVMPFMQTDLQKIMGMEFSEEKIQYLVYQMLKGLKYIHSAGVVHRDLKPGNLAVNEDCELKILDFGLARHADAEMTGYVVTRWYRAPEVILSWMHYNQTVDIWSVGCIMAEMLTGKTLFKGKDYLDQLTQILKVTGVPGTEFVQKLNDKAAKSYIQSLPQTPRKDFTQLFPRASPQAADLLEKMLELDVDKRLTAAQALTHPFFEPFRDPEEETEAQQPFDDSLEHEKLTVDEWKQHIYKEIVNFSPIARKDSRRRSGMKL

| Structure (SMILES) | EC50 (AURKB (Aurora B)) | EC50 (FGFR1) | EC50 (FLT3 D835Y) | EC50 (FRK (PTK5)) | EC50 (GRK6) | EC50 (IGF1R) | EC50 (MAPK1 (ERK2)) | EC50 (MAPK10 (JNK3)) | EC50 (MAPK13 (p38 delta)) | EC50 (PAK6) | EC50 (PDGFRB (PDGFR beta)) | EC50 (PRKCI (PKC iota)) | EC50 (PTK2B (FAK2, PYK2)) | EC50 (SYK) | EC50 (TEK (Tie2)) | EC50 (GRK6; GRK6, estimated, abridged dose response curve, read-out: Kinase inhibitory activity EC50) |
| --- | --- | --- | --- | --- | --- | --- | --- | --- | --- | --- | --- | --- | --- | --- | --- | --- |
| CCN(CC)CCNc1ccc2ncn3c4ccc(O)cc4c(=O)c1c23 [Symadex, 5-(2-(diethylamino)ethylamino)-8-hydroxy-6H-imidazo[4,5,1-de]acridin-6-one, reference compound] | > 5 µM | 2.39 µM | 0.003 µM | 2.11 µM | > 5 µM | > 5 µM | > 5 µM | > 5 µM | > 5 µM | > 5 µM | 1.79 µM | > 5 µM | > 5 µM | 3.91 µM | > 5 µM | – |
| CN(C)CCCNc1ccc2ncn3c4ccc5[nH]ncc5c4c(=O)c1c23 [Compound (IV)] | > 5 µM | 3.57 µM | 0.001 µM | 0.389 µM | – | 1.56 µM | > 5 µM | 2.81 µM | > 5 µM | > 5 µM | 0.278 µM | > 5 µM | > 5 µM | > 5 µM | > 5 µM | > 5 µM |
